Among the data in patent publication US9630922B2, “3-spiro-7-hydroxamic acid tetralins as HDAC inhibitors” (Forma Therapeutics, Inc., priority 2015, dated 2017) are IC50 values, retold here.

This test deals with T1, HDAC6 (Homo sapiens, UniProt Q9UBN7).
T1 construct: Full length human recombinant HDAC6 protein was expressed in baculoviral system; made in house; host or cells: baculoviral system
T1 sequence (Q9UBN7 1-1215): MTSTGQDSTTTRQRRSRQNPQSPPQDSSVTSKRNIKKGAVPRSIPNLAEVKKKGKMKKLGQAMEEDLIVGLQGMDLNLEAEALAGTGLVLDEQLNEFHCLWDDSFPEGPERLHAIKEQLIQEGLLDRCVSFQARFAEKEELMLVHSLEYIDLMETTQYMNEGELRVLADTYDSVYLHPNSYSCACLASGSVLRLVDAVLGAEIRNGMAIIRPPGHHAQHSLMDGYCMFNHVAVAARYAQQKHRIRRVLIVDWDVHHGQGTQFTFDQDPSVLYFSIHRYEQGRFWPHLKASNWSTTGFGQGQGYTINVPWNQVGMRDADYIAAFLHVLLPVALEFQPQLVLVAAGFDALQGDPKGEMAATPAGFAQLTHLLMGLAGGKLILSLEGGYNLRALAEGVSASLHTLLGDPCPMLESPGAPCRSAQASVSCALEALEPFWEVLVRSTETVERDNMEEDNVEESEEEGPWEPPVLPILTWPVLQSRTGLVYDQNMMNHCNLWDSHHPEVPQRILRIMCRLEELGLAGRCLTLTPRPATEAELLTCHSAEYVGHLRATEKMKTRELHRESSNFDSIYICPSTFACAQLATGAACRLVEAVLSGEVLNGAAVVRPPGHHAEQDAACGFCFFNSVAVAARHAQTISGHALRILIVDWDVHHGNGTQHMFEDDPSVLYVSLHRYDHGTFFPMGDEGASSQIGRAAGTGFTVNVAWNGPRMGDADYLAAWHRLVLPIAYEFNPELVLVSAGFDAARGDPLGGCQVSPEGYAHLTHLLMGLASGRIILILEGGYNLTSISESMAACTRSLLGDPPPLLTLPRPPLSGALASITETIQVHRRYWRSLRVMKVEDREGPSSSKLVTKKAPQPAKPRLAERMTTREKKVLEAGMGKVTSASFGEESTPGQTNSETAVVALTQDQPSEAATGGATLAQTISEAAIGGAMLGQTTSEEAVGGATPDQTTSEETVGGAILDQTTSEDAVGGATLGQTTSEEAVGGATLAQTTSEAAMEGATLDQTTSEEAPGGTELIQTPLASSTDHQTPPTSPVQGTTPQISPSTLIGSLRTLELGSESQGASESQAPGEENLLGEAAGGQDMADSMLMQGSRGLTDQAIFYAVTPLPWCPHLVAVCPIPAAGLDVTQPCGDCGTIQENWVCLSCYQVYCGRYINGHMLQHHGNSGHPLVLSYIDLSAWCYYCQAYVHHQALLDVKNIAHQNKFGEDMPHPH
As to the kind of experiment: In vitro Histone Deacetylase Assay (enzymatic HDAC6 electrophoretic mobility shift assay). Particulars: full length human recombinant HDAC6, 1 nM enzyme, 2 μM peptide substrate RHKK(Ac)-NH2, 25° C.; read-out: HDAC6 activity range. It is filed as biochemical. The method in brief:
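Deacetylation was read by microfluidic mobility shift as product/(substrate+product) peak ratio and normalised to 0% and 100% inhibition controls. Reactions used 1 nM baculovirus-expressed full-length human HDAC6 and 2 μM labelled RHKK(Ac)-NH2 in pH 7.5 HEPES buffer with 1% DMSO at 25 °C. IC50 was from 4-parameter fits of 12 concentrations.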
In general terms: A gel shift assay detects complexes by their altered migration in electrophoresis.
Consider `O=C(NO)c1ccc2c(c1)CC[C@]1(CCN(c3cnc4ccccc4c3)C1=O)C2` [Compound I-95, (R)-N-hydroxy-2′-oxo-1′-(quinolin-3-yl)-3,4-dihydro-1H-spiro[naphthalene-2,3′-pyrrolidine]-6-carboxamide], for which the IC50 is no more than 100 nM.

Take `O=C(NO)c1ccc2c(c1)CC[C@]1(CCN(c3cccc4c3OCC4)C1=O)C2` [Compound I-96, (R)-1′-(2,3-dihydrobenzofuran-7-yl)-N-hydroxy-2′-oxo-3,4-dihydro-1H-spiro[naphthalene-2,3′-pyrrolidine]-6-carboxamide]: the IC50 is no more than 100 nM.

For the compound `CC(C)(C)Nc1cc(N2CC[C@]3(CCc4cc(C(=O)NO)ccc4C3)C2=O)ncn1` [Compound I-97, (R)-1′-(6-(tert-butylamino)pyrimidin-4-yl)-N-hydroxy-2′-oxo-3,4-dihydro-1H-spiro[naphthalene-2,3′-pyrrolidine]-6-carboxamide], the IC50 is no more than 100 nM.

`Cc1nn(C)cc1N1CC[C@]2(CCc3cc(C(=O)NO)ccc3C2)C1=O` [Compound I-98, (R)-1′-(1,3-dimethyl-1H-pyrazol-4-yl)-N-hydroxy-2′-oxo-3,4-dihydro-1H-spiro[naphthalene-2,3′-pyrrolidine]-6-carboxamide]: the IC50 was no more than 100 nM.

Take `O=C(NO)c1ccc2c(c1)CC[C@]1(CCN(c3ccc4nccn4c3)C1=O)C2` [Compound I-99, (R)-N-hydroxy-1′-(imidazo[1,2-a]pyridin-6-yl)-2′-oxo-3,4-dihydro-1H-spiro[naphthalene-2,3′-pyrrolidine]-6-carboxamide]: the IC50 is no more than 100 nM.

Consider `Cc1ccc(N2CC[C@@]3(CCc4cc(C(=O)NO)ccc4C3)C2=O)c(C)c1` [Compound I-100, (S)-1′-(2,4-dimethylphenyl)-N-hydroxy-2′-oxo-3,4-dihydro-1H-spiro[naphthalene-2,3′-pyrrolidine]-6-carboxamide], for which the IC50 was no more than 100 nM.

Regarding `CC(C)c1ccc(N2CC[C@@]3(CCc4cc(C(=O)NO)ccc4C3)C2=O)cn1` [Compound I-101, (S)-N-hydroxy-1′-(6-isopropylpyridin-3-yl)-2′-oxo-3,4-dihydro-1H-spiro[naphthalene-2,3′-pyrrolidine]-6-carboxamide], the IC50 is no more than 100 nM.

In the case of `O=C(NO)c1ccc2c(c1)CC[C@@]1(CCN(c3cnc4ccccc4c3)C1=O)C2` [Compound I-102, (S)-N-hydroxy-2′-oxo-1′-(quinolin-3-yl)-3,4-dihydro-1H-spiro[naphthalene-2,3′-pyrrolidine]-6-carboxamide], the IC50 is no more than 100 nM.

For the compound `CN1CC[C@]2(CCc3cc(C(=O)NO)ccc3C2)C1=O` [Compound I-104, (R)-N-hydroxy-1′-methyl-2′-oxo-3,4-dihydro-1H-spiro[naphthalene-2,3′-pyrrolidine]-6-carboxamide], the IC50 was no more than 100 nM.

Consider `CN1CC[C@@]2(CCc3cc(C(=O)NO)ccc3C2)C1=O` [Compound I-105, (S)-N-hydroxy-1′-methyl-2′-oxo-3,4-dihydro-1H-spiro[naphthalene-2,3′-pyrrolidine]-6-carboxamide], for which the IC50 is no more than 100 nM.

`O=C(NO)c1ccc2c(c1)CC[C@]1(CCN(Cc3ccc(S(=O)(=O)C(F)(F)F)cc3)C1=O)C2` [Compound I-106, (R)-N-hydroxy-2′-oxo-1′-(4-((trifluoromethyl)sulfonyl)benzyl)-3,4-dihydro-1H-spiro[naphthalene-2,3′-pyrrolidine]-6-carboxamide]: the IC50 is no more than 100 nM.

With `O=C(NO)c1ccc2c(c1)CC[C@@]1(CCN(Cc3ccc(S(=O)(=O)C(F)(F)F)cc3)C1=O)C2` [Compound I-107, (S)-N-hydroxy-2′-oxo-1′-(4-((trifluoromethyl)sulfonyl)benzyl)-3,4-dihydro-1H-spiro[naphthalene-2,3′-pyrrolidine]-6-carboxamide], the IC50 lay in the range of 100 to 500 nM.

Regarding `COc1cccc(N2CC[C@]3(CCc4cc(C(=O)NO)ccc4C3)C2=O)c1` [Compound I-108, (R)-N-hydroxy-1′-(3-methoxyphenyl)-2′-oxo-3,4-dihydro-1H-spiro[naphthalene-2,3-pyrrolidine]-6-carboxamide], the IC50 was no more than 100 nM.
